Laboratory results as given in BindingDB's records for PubMed 33548635 (University of Aveiro, 2021).

Columns and labels:
[1] = molecular target: T1, Amyloid-beta precursor protein (Homo sapiens, UniProt P05067); experiment: Inhibition of amyloid beta 40 secretion transfected in human H4 cells incubated for 20 to 24 hrs by LPECL assay
[2] = molecular target: T1, Amyloid-beta precursor protein; experiment: Inhibition of amyloid beta 42 secretion transfected in human H4 cells incubated for 20 to 24 hrs by LPECL assay

T1 sequence (P05067 whole entry): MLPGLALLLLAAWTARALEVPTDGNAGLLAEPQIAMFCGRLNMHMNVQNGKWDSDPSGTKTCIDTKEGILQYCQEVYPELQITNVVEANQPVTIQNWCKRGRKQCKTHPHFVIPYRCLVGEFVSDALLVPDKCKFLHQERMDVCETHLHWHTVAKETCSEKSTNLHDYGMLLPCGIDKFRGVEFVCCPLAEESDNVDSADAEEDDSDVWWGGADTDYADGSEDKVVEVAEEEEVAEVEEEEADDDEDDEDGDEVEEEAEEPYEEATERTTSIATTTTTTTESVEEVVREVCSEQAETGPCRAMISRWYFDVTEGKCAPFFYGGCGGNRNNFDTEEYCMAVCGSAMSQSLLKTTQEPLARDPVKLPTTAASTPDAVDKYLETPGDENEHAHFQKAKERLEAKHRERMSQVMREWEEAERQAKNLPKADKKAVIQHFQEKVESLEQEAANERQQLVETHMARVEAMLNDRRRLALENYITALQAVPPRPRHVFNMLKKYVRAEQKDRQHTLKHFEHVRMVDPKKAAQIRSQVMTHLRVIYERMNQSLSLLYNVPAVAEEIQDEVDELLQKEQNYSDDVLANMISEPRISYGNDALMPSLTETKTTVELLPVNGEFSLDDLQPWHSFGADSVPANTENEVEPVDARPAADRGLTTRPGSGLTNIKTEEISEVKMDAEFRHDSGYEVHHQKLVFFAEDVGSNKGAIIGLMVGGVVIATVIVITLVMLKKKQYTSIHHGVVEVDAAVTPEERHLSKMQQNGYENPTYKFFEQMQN

Row | Compound | IC50 [1] [µM] | IC50 [2] [µM]
1 | COc1cc(/C=C/c2cc(/C=C/c3ccc(O)c(OC)c3)n(Cc3ccccc3)n2)ccc1O | 11.5 | 15.3
2 | COc1cc(/C=C/c2cc(/C=C/c3ccc(O)c(OC)c3)n(CCO)n2)ccc1O | 17.8 | 17.3
3 | COc1cc(/C=C/c2cc(/C=C/c3ccc(OCC(=O)O)c(OC)c3)on2)ccc1OCC(=O)O | 14.1 | > 40
4 | COc1cc(/C=C/c2cc(/C=C/c3ccc(O)c(OC)c3)[nH]n2)ccc1O [4-(2-(5-(4-hydroxy-3-methoxystyryl)-1H-pyrazol-3-yl)vinyl)-2-methoxyphenol] | 9.7 | 8.7
5 | COc1cc(/C=C/c2cc(/C=C/c3ccc(OCC(=O)OC(C)(C)C)c(OC)c3)on2)ccc1OCC(=O)OC(C)(C)C | > 40 | > 40
6 | COc1cc(/C=C/c2cc(/C=C/c3ccc(O)c(OC)c3)n(C)n2)ccc1O | 10.4 | 9
7 | COc1cc(/C=C/c2cc(/C=C/c3ccc(O)c(OC)c3)n(-c3ccc(Cl)nn3)n2)ccc1O | 5.4 | 4.8
8 | COc1cc(/C=C/c2cc(/C=C/c3ccc(O)c(OC)c3)on2)ccc1O [4-((E)-2-{3-[(E)-2-(4-hydroxy-3-methoxyphenyl)vinyl]isoxazol-5-yl}vinyl)-2-methoxyphenol] | 7.4 | 6.8

Other lines, results leading:

Row | IC50 [1] [µM] | IC50 [2] [µM] | Compound
9 | 15.1 | 14.2 | COc1cc(/C=C/c2cc(/C=C/c3ccc(O)c(OC)c3)n(-c3cccc([N+](=O)[O-])c3)n2)ccc1O
10 | 6.2 |  | COc1cc(/C=C/c2cc(/C=C/c3ccc(O)c(OC)c3)n(-c3ccc([N+](=O)[O-])cc3)n2)ccc1O
11 | 6.3 | 3.5 | COc1cc(/C=C/c2cc(/C=C/c3ccc(O)c(OC)c3)n(-c3cc(Cl)cc(Cl)c3)n2)ccc1O
12 | 8.7 | 5 | COc1cc(/C=C/c2cc(/C=C/c3ccc(O)c(OC)c3)n(-c3ccc(C)cc3)n2)ccc1O
13 | 11.3 | 14.2 | COc1cc(/C=C/c2cc(/C=C/c3ccc(O)c(OC)c3)n(-c3ccccc3)n2)ccc1O
14 | 6.9 | 4.4 | COc1cc(/C=C/c2cc(/C=C/c3ccc(O)c(OC)c3)n(-c3ccc(C(C)C)cc3)n2)ccc1O
